Experimental findings from US20250382303A1, “NOVEL COMPOUND AS NADPH OXIDASE 2 INHIBITOR AND PHARMACEUTICAL COMPOSITION CONTAINING SAME” (DONGGUK UNIVERSITY INDUSTRY-ACADEMIC COOPERATION FOUNDATION, priority 2022, published 2025) are described below.

The target of this assay is T1, NOX2 (Homo sapiens, UniProt P04839).
T1 construct: Used for the NOX2 activity assay was human leukemia 60 cells (HL-60), which are widely, universally used to assess NOX2 activity; endogenous in cells
T1 sequence (P04839 2-570 limits assumed): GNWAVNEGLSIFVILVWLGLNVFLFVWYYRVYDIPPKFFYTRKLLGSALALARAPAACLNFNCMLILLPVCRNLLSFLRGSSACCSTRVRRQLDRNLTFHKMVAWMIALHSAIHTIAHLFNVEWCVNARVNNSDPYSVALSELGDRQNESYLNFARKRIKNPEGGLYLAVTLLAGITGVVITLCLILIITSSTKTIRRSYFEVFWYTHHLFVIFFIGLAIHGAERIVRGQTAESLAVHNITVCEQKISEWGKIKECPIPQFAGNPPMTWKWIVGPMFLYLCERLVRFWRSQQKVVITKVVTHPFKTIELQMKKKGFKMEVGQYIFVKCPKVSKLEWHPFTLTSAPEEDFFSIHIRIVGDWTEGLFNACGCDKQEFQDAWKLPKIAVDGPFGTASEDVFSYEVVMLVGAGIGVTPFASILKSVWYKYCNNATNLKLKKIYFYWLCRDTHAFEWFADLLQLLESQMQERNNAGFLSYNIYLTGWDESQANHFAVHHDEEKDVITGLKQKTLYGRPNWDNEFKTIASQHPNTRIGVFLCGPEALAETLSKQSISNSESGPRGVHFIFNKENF
T1 sequence (P13498 2-195 partner limits assumed): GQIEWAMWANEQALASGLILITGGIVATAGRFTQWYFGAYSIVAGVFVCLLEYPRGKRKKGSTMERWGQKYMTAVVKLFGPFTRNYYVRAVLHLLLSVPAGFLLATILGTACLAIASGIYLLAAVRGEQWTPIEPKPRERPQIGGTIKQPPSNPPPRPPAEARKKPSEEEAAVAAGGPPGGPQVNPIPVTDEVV
Briefly: NOX2 activity assay: PMA-induced ROS in ATRA-differentiated HL-60 cells (WST-1 or Amplex Red/HRP probe). The format is cell-based. As to conditions: for pIC50: WST-1 probe, differentiated HL-60, 200 ng/mL PMA, read-out: Inhibitory ability (NOX2); for concentration dependence of NOX2 inhibition: FIG. 1; for NOX2 inhibitory ability, verbal rating: WST-1, comment on Table 1. How it is done:
NOX activity was evaluated by measuring the reactive oxygen species (ROS) produced by NOX. The probes that were used to measure ROS were water soluble tetrazolium-1 (WST-1, superoxide-specific colorimetric probe) and Amplex Red/horseradish peroxidase (AR/HRP, hydrogen peroxide-specific fluorometric probe), and the concentration of the probes used was […]. For WST-1, the change in the absorbance at 450 nm was measured, and, for AR, the change in fluorescence signals was measured at 560 nm and 585 nm, respectively for excitation wavelength (Ex) and emission wavelength (Em). The optical signal was measured using the SpectraMax M3 microplate reader from Molecular Devices at 37° C. for 60 minutes.
Used for the NOX2 activity assay was human leukemia 60 cells (HL-60), which are widely, universally used to assess NOX2 activity. 1×10^5 cells/mL of HL-60 were treated with […] all-trans-retinoic acid (ATRA) for 4 days to induce differentiation. Differentiated HL-60 (diff. HL-60) was centrifuged at 200 g for 5 minutes and washed twice with HBSS. Differentiation was induced to reach 3×10^4 cells/well on a 96-well plate (diff). HL-60 was seeded. The test material was treated to cells and left in a 37° C. incubator for 60 minutes. As a control group, the same concentration of DMSO, which is the vehicle of the test material, was used. 200 ng/mL phorbol 12-myristate 13-acetate (PMA) was used as the NOX2 activator, and the production amount of ROS induced by PMA was measured for 60 minutes. […] diphenyleneiodonium (DPI), which is well known to inhibit NOX, was used as a positive control group to evaluate whether the NOX2 activity tester properly operates.

Structures are written as SMILES. pIC50: −log10 of the molar value.

With `CC12CC(NC(=O)N1c1cccc(C(=O)N3CCc4ccccc4C3)c1)c1cccc(Br)c1O2` (centres unmarked) [Compound 25f, 10-Bromo-2-methyl-3-(3-(1,2,3,4-tetrahydroisoquinoline-2-carbonyl)phenyl)-5,6-dihydro-2H-2,6-methanobenzo[g][1,3,5]oxadiazocin-4(3H)-one], the pIC50 is less than 5.00.

On to `COc1cccc2c1OC1(C)CC2NC(=O)N1c1cccc(C(=O)N2CCc3ccccc3C2)c1` (centres unmarked) [Compound 25g, 10-Methoxy-2-methyl-3-(3-(1,2,3,4-tetrahydroisoquinoline-2-carbonyl)phenyl)-5,6-dihydro-2H-2,6-methanobenzo[g][1,3,5]oxadiazocin-4(3H)-one], for which the pIC50 was less than 5.00.

Take `CC12CC(NC(=O)N1c1cccc(C(=O)N3CCc4ccccc4C3)c1)c1ccc(Br)cc1O2` (centres unmarked) [Compound 25h, 9-Bromo-2-methyl-3-(3-(1,2,3,4-tetrahydroisoquinoline-2-carbonyl)phenyl)-5,6-dihydro-2H-2,6-methanobenzo[g][1,3,5]oxadiazocin-4(3H)-one]: the pIC50 was 5.00 to 6.00.

As for `CC12CC(NC(=O)N1c1cccc(C(=O)N3CCc4ccccc4C3)c1)c1ccc(C(F)(F)F)cc1O2` (centres unmarked) [Compound 25i, 2-Methyl-3-(3-(1,2,3,4-tetrahydroisoquinoline-2-carbonyl)phenyl)-9-(trifluoromethyl)-5,6-dihydro-2H-2,6-methanobenzo[g][1,3,5]oxadiazocin-4(3H)-one], the pIC50 was 5.00 to 6.00.

Regarding `CC12CC(NC(=O)N1c1cccc(C(=O)N3CCc4ccccc4C3)c1)c1ccc(Cl)cc1O2` (centres unmarked) [Compound 25j, 9-Chloro-2-methyl-3-(3-(1,2,3,4-tetrahydroisoquinoline-2-carbonyl)phenyl)-5,6-dihydro-2H-2,6-methanobenzo[g][1,3,5]oxadiazocin-4(3H)-one], the pIC50 was 5.00 to 6.00.

For `CC12CC(NC(=O)N1c1cccc(C(=O)N3CCc4ccccc4C3)c1)c1ccc(F)cc1O2` (centres unmarked) [Compound 25k, 9-Fluoro-2-methyl-3-(3-(1,2,3,4-tetrahydroisoquinoline-2-carbonyl)phenyl)-5,6-dihydro-2H-2,6-methanobenzo[g][1,3,5]oxadiazocin-4(3H)-one], the pIC50 was less than 5.00.

Take `COc1ccc2c(c1)OC1(C)CC2NC(=O)N1c1cccc(C(=O)N2CCc3ccccc3C2)c1` (centres unmarked) [Compound 25l, 9-Methoxy-2-methyl-3-(3-(1,2,3,4-tetrahydroisoquinoline-2-carbonyl)phenyl)-5,6-dihydro-2H-2,6-methanobenzo[g][1,3,5]oxadiazocin-4(3H)-one]: the pIC50 is less than 5.00.

For the molecule `CC12CC(NC(=O)N1c1cccc(C(=O)N3CCc4ccccc4C3)c1)c1c(F)cccc1O2` (centres unmarked) [Compound 25m, 7-Fluoro-2-methyl-3-(3-(1,2,3,4-tetrahydroisoquinoline-2-carbonyl)phenyl)-5,6-dihydro-2H-2,6-methanobenzo[g][1,3,5]oxadiazocin-4(3H)-one], the pIC50 is 5.00 to 6.00.

On to `CC12CC(NC(=O)N1c1cccc(C(=O)N3CCc4ccccc4C3)c1)c1cc(-c3ccsc3)ccc1O2` (centres unmarked) [Compound 26a, 2-Methyl-3-(3-(1,2,3,4-tetrahydroisoquinoline-2-carbonyl)phenyl)-8-(thiophen-3-yl)-5,6-dihydro-2H-2,6-methanobenzo[g][1,3,5]oxadiazocin-4(3H)-one], for which the “concentration dependence of NOX2 inhibition” value is “inhibited NOX2 activity in a concentration-dependent manner”; the “NOX2 inhibitory ability, verbal rating” value is “excellent inhibitory ability”; the pIC50 was more than 6.00.

As to `CC12CC(NC(=O)N1c1cccc(C(=O)N3CCc4ccccc4C3)c1)c1cc(-c3ccoc3)ccc1O2` (centres unmarked) [Compound 26b, 8-(Furan-3-yl)-2-methyl-3-(3-(1,2,3,4-tetrahydroisoquinoline-2-carbonyl)phenyl)-5,6-dihydro-2H-2,6-methanobenzo[g][1,3,5]oxadiazocin-4(3H)-one], the “concentration dependence of NOX2 inhibition” value is reported as “inhibited NOX2 activity in a concentration-dependent manner”; the “NOX2 inhibitory ability, verbal rating” value is listed as “excellent inhibitory ability”; the pIC50 was more than 6.00.
